Holding throughout (type): functional
For assay [1], the system named is Helicobacter pylori. The assay can be described thus: Minimum inhibitory concentration against Helicobacter pylori.
Assay [2] deals with Helicobacter pylori. The assay can be described thus: Minimum inhibitory concentration against Helicobacter pylori under acidic conditions at pH 5.0.
The test system of assay [3] is Helicobacter pylori. The assay can be described thus: Minimum inhibitory concentration against Helicobacter pylori under acidic conditions at pH 6.0.
Assay [4] deals with Helicobacter pylori. The assay is described as follows: Minimum inhibitory concentration against Helicobacter pylori under acidic conditions at pH 7.0.

Converted amounts (≈) assume the structure as drawn.

In the case of `CNC(=O)c1cccc(NC(=O)COc2cccc3ccccc23)c1`, in assay [1], the minimum inhibitory concentration (MIC) turned out to be 0.1 µg/mL (≈ 0.299 µM). Take `CC[C@H]1OC(=O)[C@H](C)[C@@H](O[C@H]2C[C@@](C)(OC)[C@@H](O)[C@H](C)O2)[C@H](C)[C@@H](O[C@@H]2O[C@H](C)C[C@H](N(C)C)[C@H]2O)[C@](C)(OC)C[C@@H](C)C(=O)[C@H](C)[C@@H](O)[C@]1(C)O` [CLARITHROMYCIN]: the MIC in assay [1] stood at 0.05 µg/mL (≈ 0.0668 µM); in assay [2] it was 2 µg/mL (≈ 2.67 µM); in assay [3] it was 0.5 µg/mL (≈ 0.668 µM); in assay [4], 0.063 µg/mL (≈ 0.0842 µM).

Regarding `CNC(=O)c1cccc(NC(=O)Cc2ccc(Br)cc2)c1`, in assay [1], the MIC turned out to be 0.78 µg/mL (≈ 2.25 µM). Same read-out and setting: the same measure for `CNC(=O)c1cccc(NC(=O)Cc2cccc(Cl)c2)c1`: 0.39 µg/mL (≈ 1.29 µM). As to `CNC(=O)c1cccc(NC(=O)COc2cccc(Cl)c2Cl)c1`, the MIC in assay [1] came out at 0.39 µg/mL (≈ 1.1 µM). Still for that read-out and setting: the same measure for `CNC(=O)c1cccc(NC(=O)Cc2cccc(F)c2)c1`: 3.12 µg/mL (≈ 10.9 µM); for `NC(=O)c1cccc(NC(=O)Cc2cccc(Br)c2)c1`: 100 µg/mL (≈ 300 µM); for `CNC(=O)c1cccc(NC(=O)Cc2cccc(C)c2)c1`: 0.39 µg/mL (≈ 1.38 µM). In the case of `CNC(=O)c1cccc(NC(=O)Cc2csc3ccccc23)c1`, the MIC in assay [1] is 0.1 µg/mL (≈ 0.308 µM); in assay [2] it was 0.25 µg/mL (≈ 0.771 µM); in assay [3], 0.25 µg/mL (≈ 0.771 µM); in assay [4] it was 0.25 µg/mL (≈ 0.771 µM). With `CC1(C)S[C@@H]2[C@H](NC(=O)[C@H](N)c3ccc(O)cc3)C(=O)N2[C@H]1C(=O)O` [AMOXICILLIN], the figures for the MIC in assay [2], in assay [3] and in assay [4] were 0.5 µg/mL (≈ 1.37 µM), 0.125 µg/mL (≈ 0.342 µM) and 0.031 µg/mL (≈ 0.0848 µM), respectively. On to `CCNC(=O)c1cccc(NC(=O)Cc2cccc(Br)c2)c1`, for which the lowest concentration to inhibit growth in assay [1] (MIC) was 3.12 µg/mL (≈ 8.64 µM). Still for that read-out and setting: the same measure for `O=C(Cc1cccc(Br)c1)Nc1cccc(C(=O)O)c1`: above 100 µg/mL. `O=C(Cc1cccc(Br)c1)Nc1cccc(C(=O)NO)c1`: the MIC in assay [1] amounted to 12.5 µg/mL (≈ 35.8 µM). In the case of `CNC(=O)c1cccc(NC(=O)Cc2cccc3ccccc23)c1`, the MIC in assay [1] came out at 0.1 µg/mL (≈ 0.314 µM); in assay [2], 0.125 µg/mL (≈ 0.393 µM); in assay [3], 0.125 µg/mL (≈ 0.393 µM); in assay [4] it was 0.125 µg/mL (≈ 0.393 µM). `CNC(=O)c1cccc(NC(=O)OCc2c(Cl)cccc2Cl)c1` displayed an MIC in assay [1] of 0.2 µg/mL (≈ 0.566 µM). On the same count and under the same terms, the same measure for `CNC(=O)c1cccc(NC(=O)Cc2ccc3c(c2)OCO3)c1`: 0.78 µg/mL (≈ 2.5 µM); for `CNC(=O)c1cccc(NC(=O)COc2ccccc2)c1`: 3.12 µg/mL (≈ 11 µM); for `CNC(=O)c1cccc(NC(=O)COc2ccc3ccccc3c2)c1`: 0.39 µg/mL (≈ 1.17 µM). The molecule `CNC(=O)c1cccc(NC(=O)Cc2ccc(Cl)cc2)c1` yielded an MIC in assay [1] of 0.78 µg/mL (≈ 2.58 µM). With `CN(C)C(=O)c1cccc(NC(=O)Cc2cccc(Br)c2)c1`, the lowest concentration to inhibit growth in assay [1] (MIC) was 25 µg/mL (≈ 69.2 µM). Still for that read-out and setting: the same measure for `CNC(=O)c1cccc(NC(=O)Cc2ccccc2)c1`: 1.56 µg/mL (≈ 5.81 µM); for `CCOC(=O)c1cccc(NC(=O)Cc2cccc(Br)c2)c1`: above 100 µg/mL; for `CNC(=O)c1cccc(NC(=O)Cc2cccc(OCc3ccccc3)c2)c1`: 0.78 µg/mL (≈ 2.08 µM). The same measure, in the same setting: the same measure for `CNC(=O)c1cccc(NC(=O)OCc2cccc3ccccc23)c1`: 0.05 µg/mL (≈ 0.15 µM).

For `CNC(=O)c1cccc(NC(=O)CC2CCCCC2)c1`, the lowest concentration to inhibit growth in assay [1] (MIC) was 12.5 µg/mL (≈ 45.6 µM).

As to `CNC(=O)c1cccc(NC(=O)OCc2ccc3ccccc3c2)c1`, in assay [1], inhibition of growth (MIC) required 0.1 µg/mL (≈ 0.299 µM). In turn, `CNC(=O)c1cccc(NC(=O)CCc2ccccc2OC)c1` displayed an MIC in assay [1] of 0.78 µg/mL (≈ 2.5 µM). The same measure, in the same setting: the same measure for `CNC(=O)c1cccc(NC(=O)Cc2cccc(O)c2)c1`: 6.25 µg/mL (≈ 22 µM); for `CNC(=O)c1cccc(NC(=O)Cc2ccccc2Cl)c1`: 3.12 µg/mL (≈ 10.3 µM). The same measure, in the same setting: the same measure for `CNC(=O)c1cccc(NC(=O)Cc2cccc(OC)c2)c1`: 0.78 µg/mL (≈ 2.61 µM). Still for that read-out and setting: the same measure for `CNC(=O)c1cccc(NC(=O)OCc2ccc(Cl)cc2)c1`: 0.2 µg/mL (≈ 0.627 µM); for `CNC(=O)c1cccc(NC(=O)Cc2cccc([N+](=O)[O-])c2)c1`: 3.12 µg/mL (≈ 9.96 µM); for `CNC(=O)c1cccc(NC(=O)OCc2ccc(C)cc2)c1`: 0.1 µg/mL (≈ 0.335 µM).

As for `CNC(=O)c1cccc(NC(=O)Cc2cccc(Br)c2)c1`, the MIC in assay [1] stood at 0.39 µg/mL (≈ 1.12 µM).

Molecule `CNC(=O)c1cccc(NC(=O)Cc2c[nH]c3ccccc23)c1` registered an MIC in assay [1] of 0.78 µg/mL (≈ 2.54 µM). Same read-out and setting: the same measure for `CONC(=O)c1cccc(NC(=O)Cc2cccc(Br)c2)c1`: 12.5 µg/mL (≈ 34.4 µM). On to `CNC(=O)c1cccc(NC(=O)Cc2ccc3ccccc3c2)c1`, for which the minimal inhibitory concentration (MIC) was 0.05 µg/mL (≈ 0.157 µM) in assay [1], 0.063 µg/mL (≈ 0.198 µM) in assay [2], 0.063 µg/mL (≈ 0.198 µM) in assay [3] and 0.063 µg/mL (≈ 0.198 µM) in assay [4]. `CNC(=O)c1cccc(NC(=O)CCc2ccccc2)c1` gave an MIC in assay [1] of 12.5 µg/mL (≈ 44.3 µM).
